The results in this text go back to US11789029B2, “Temporal traumatic brain injury biomarkers and methods of use thereof” (ARIZONA BOARD OF REGENTS ON BEHALF OF ARIZONA STATE …, priority 2019, dated 2023).

“Also recorded” adds a separate entry of the source. No end group written: not given here. bromoacetamide scaffold = not defined here

One test deals with CCI injury sections. Kind of test: Immunohistochemistry of biotinylated HCDR3 constructs on CCI injury sections. The note with it: for bioreactivity of control HCDR3 constructs on injured neural tissue: injured tissue at 1 or 7 days post-injury; for bioreactivity of chronic injury targeting HCDR3 constructs: 21 dpi tissue sections, 5 μM construct, Triton-X permeabilization. In kind it is binding, mice. How it is done: Mice were subject to CCI or sham (n=3 per group/sex) as described previously and perfused with 0.1 M phosphate buffer and 4% paraformaldehyde at specified timepoints. Brains were fixed overnight in 4% paraformaldehyde at 4° C. followed by immersion in 15% sucrose and then 30% sucrose. Brains were flash frozen on dry ice in optimal cutting temperature medium and stored at −80° C. Samples were sectioned coronally at 20 μm thickness.
Tissue sections were incubated with excess streptavidin and biotin to block endogenous biotin using an Endogenous Biotin blocking kit (Thermo Fisher Scientific). After permeabilization with either 0.2% Triton-X 100 or Tween-20, 5 μM of biotinylated HCDR3-construct was incubated on tissue overnight at 4° C. Simultaneously, sections that served as controls were incubated with control HCDR3-construct or 1×PBS. Tissue sections were washed in 1×PBS and incubated with Alexa Fluor 555 streptavidin at room temperature for 2 hours, followed by 1×PBS washes and DAPI incubation for 5 minutes. Slides were imaged using fluorescence microscopy with Leica software.
For NGS analysis, raw counts were first normalized to reads per million (RPM) to account for library differences. A normalized z-score was then used as a threshold to identify dAbs that were highly represented and specific to their distinct injury timepoint. Selected dAbs were then screened for enrichment factor and individual frequency. Fluorescence percentage per area was conducted with ordinary one way ANOVA followed by Dunnett's test for multiple comparisons. Statistical significance was determined as p<0.05. Identified proteins that met the false discovery rate (FDR) threshold of <0.01 were used in all ontological assessments to categorize biological processes and candidate pathways.

The next test deals with tissue lysates. Put plainly: Immunoprecipitation-mass spectrometry with HCDR3 constructs as capture antibodies. In kind it is binding, Mus musculus. The following applies: A2 with 1 dpi tissue lysates, SA1 with 7 dpi tissue lysates. The source says:
(§1) CCI and sham surgeries were completed as described previously. Mice were sacrificed at 1 d, 7 d, or 21 d post-injury (n=3/group) via transcardial perfusion with phosphate buffer, pH 7.4. The ipsilateral hemisphere of the brain was immediately dissected and homogenized in chilled lysis buffer (1×PBS, 1% Triton, protease inhibitor cocktail). Protein concentration of the homogenates was quantified with the Pierce BCA Protein Assay Kit (Thermo Fisher).
(§2) Streptavidin-coupled Dynabeads (Thermo Fisher) were washed with 1×PBST with 0.1% Tween and incubated with 1 mg/mL tissue lysate for 1 hour at room temperature. Pre-cleared lysate was collected after separation from magnetic beads and incubated with 450 pmol of HCDR3-construct rotating overnight at 4° C. to form the immune complex. The immune complex was then incubated with Streptavidin-coupled Dynabeads for 1 hour at room temperature before antigen was eluted from beads by heating sample at 95° C. with SDS PAGE running buffer. Samples were run on a pre-cast 12% SDS-PAGE gel (Bio-Rad) and bands were excised. Gel bands were processed by ASU Biodesign Mass Spectrometry Facility for digestion and protein identification with the Thermo Orbitrap Fusion Lumos (Thermo Fisher).
UniProt IDs of identified proteins were uploaded to the PANTHER classification system and searched against the Mus musculus reference database. […]

The target in test [1] is T1, Succinate--CoA ligase [ADP-forming] subunit beta, mitochondrial (Mus musculus, UniProt Q9Z2I9).
T1 construct: The ipsilateral hemisphere of the brain was immediately dissected and homogenized in chilled lysis buffer; from tissue; host or cells: ipsilateral brain hemisphere lysate of CCI or sham mice
Kind of test: Immunoprecipitation-mass spectrometry, candidate protein. In kind it is binding.
Excerpt: as §1, §2
(§3) UniProt IDs of identified proteins were uploaded to the PANTHER classification system and searched against the Mus musculus reference database. Ontological assessments to characterize cellular localization, molecular function, biological processes, and pathways were conducted with PANTHER Overrepresentation test (Fisher's Exact test, p<0.05 using Benjamini Hochberg False Discovery Rate correction) with the GO Ontology database (released 2019-10-08).

The target in test [2] is T2, citrate synthase, mitochondrial (Mus musculus, UniProt Q9CZU6).
T2 construct: The ipsilateral hemisphere of the brain was immediately dissected and homogenized in chilled lysis buffer; from tissue; host or cells: ipsilateral brain hemisphere lysate of CCI or sham mice
T2 sequence (Q9CZU6 28-464): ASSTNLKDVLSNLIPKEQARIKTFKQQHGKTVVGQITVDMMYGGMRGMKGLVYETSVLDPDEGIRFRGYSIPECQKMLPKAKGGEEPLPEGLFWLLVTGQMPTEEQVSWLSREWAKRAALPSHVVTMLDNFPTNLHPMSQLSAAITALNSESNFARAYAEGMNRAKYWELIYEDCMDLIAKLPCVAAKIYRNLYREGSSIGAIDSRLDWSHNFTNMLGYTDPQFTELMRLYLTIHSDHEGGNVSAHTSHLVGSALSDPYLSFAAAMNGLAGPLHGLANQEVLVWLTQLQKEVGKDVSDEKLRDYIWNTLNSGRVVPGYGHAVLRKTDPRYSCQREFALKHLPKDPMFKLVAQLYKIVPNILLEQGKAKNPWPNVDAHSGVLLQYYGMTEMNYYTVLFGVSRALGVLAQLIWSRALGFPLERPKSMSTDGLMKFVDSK
Described as above. In kind it is binding.
Excerpt: as §1, §2, §3

The target in test [3] is T3, Endoplasmic reticulum chaperone BiP (Mus musculus, UniProt P20029).
T3 construct: The ipsilateral hemisphere of the brain was immediately dissected and homogenized in chilled lysis buffer; from tissue; host or cells: ipsilateral brain hemisphere lysate of CCI or sham mice
The test is described as above. In kind it is binding.
Excerpt: as §1, §2, §3

Test [4] deals with T4, Heat shock cognate 71 kDa protein (Mus musculus, UniProt P63017).
T4 construct: The ipsilateral hemisphere of the brain was immediately dissected and homogenized in chilled lysis buffer; from tissue; host or cells: ipsilateral brain hemisphere lysate of CCI or sham mice
The description is as above. In kind it is binding.
Excerpt: as §1, §2, §3

T1 sequence (Q9Z2I9 54-463): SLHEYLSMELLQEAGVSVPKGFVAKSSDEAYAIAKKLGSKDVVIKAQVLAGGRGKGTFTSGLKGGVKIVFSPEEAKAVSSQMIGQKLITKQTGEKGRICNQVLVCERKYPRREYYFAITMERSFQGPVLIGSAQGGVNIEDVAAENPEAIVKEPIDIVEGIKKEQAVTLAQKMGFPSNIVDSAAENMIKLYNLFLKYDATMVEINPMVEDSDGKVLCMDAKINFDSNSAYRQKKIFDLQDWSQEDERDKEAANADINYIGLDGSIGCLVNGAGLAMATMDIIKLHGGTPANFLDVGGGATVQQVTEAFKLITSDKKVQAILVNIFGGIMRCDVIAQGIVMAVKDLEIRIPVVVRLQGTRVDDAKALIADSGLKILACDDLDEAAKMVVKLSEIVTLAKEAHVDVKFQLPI
T1 sequence (Q9WUM5 35-346 partner): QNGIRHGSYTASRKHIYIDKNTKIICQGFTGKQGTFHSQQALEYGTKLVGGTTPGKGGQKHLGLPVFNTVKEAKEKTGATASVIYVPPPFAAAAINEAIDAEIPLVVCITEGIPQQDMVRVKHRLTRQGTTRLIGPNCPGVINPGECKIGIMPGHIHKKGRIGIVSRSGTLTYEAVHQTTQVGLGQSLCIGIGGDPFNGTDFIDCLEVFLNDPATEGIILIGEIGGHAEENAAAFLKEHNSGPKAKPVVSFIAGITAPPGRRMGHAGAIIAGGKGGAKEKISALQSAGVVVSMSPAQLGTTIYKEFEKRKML
T3 sequence (P20029 20-655): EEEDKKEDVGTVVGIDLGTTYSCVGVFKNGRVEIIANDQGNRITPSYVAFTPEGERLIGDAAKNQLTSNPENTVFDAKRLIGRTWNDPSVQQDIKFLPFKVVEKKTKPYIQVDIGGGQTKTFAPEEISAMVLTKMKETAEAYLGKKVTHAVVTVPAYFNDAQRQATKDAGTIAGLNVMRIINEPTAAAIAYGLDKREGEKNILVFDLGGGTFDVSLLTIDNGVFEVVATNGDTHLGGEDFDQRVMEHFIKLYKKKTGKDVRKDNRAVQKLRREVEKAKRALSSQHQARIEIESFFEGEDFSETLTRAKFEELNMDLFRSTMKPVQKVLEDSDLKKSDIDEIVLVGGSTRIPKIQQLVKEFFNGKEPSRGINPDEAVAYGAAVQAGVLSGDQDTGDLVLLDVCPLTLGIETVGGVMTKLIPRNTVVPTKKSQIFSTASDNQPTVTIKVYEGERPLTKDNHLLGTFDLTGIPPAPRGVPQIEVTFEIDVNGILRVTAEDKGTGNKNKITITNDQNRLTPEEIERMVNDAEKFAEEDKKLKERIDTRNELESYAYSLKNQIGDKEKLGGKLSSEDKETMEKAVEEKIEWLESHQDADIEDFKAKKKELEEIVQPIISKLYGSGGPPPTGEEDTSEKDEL
T4 sequence (P63017 whole entry): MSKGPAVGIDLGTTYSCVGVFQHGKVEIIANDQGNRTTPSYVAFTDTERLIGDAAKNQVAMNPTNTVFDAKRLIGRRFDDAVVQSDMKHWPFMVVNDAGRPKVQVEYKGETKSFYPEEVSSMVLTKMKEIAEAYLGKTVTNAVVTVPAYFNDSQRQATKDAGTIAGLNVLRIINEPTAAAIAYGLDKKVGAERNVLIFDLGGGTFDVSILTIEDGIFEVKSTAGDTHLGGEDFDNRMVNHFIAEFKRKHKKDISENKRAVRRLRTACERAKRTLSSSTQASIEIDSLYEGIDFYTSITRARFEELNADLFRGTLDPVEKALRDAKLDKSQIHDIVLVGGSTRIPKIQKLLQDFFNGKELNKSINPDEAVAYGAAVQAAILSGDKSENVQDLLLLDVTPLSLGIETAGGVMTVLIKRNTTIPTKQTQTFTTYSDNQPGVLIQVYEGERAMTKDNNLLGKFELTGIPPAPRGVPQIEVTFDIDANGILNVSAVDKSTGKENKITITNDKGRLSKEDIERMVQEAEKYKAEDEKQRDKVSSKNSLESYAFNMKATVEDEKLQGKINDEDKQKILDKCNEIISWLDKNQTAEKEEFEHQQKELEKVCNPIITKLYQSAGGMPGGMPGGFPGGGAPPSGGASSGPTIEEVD

For the sequence “TGHEGENEMAS [HE-CDR3, reference compound]”, in the test on CCI injury sections, the “bioreactivity of control HCDR3 constructs on injured neural tissue” value (from here on “bioreactivity … on injured neural tissue”) is given as “no detectable bioreactivity”.
With “SLYGSSRHTAPISF (linker (positions not given here) via bromoacetamide scaffold; not fully specified; reading uncertain; also: cyclized on bromoacetamide scaffold with biotin, sites not given here) [A2, 2, acute stage; peptide cyclized on bromoacetamide scaffold containing biotin]”, the “sensitivity and affinity to the peri-injury region” value with CCI injury sections (1 day post-injury compared to sham, subacute, and chronic tissue sections) is “high sensitivity and affinity”. In the test with CCI injury sections (in comparison to sham (p=0.0120) and 7 days post-injury tissue (p=0.0221)), the “bioreactivity determined by the fluorescence on 1 dpi tissue” value is given as “significant bioreactivity”. For the same sequence, in the test with CCI injury sections (p=0.0658), the “bioreactivity, 1 days post-injury versus 21 days post injury tissue” value is “No significant differences”. Besides, the “immunoprecipitation eluate separated by SDS-PAGE” value in the test with tissue lysates is listed as “isolated proteins unique to the injury condition”. Besides, the figures for the “# Peptides” value in test [1] and in test [2] were 4 and 3, respectively.
With RLVRESSQEHTLSS [CH1, 5, chronic injury], the “bioreactivity of chronic injury targeting HCDR3 constructs” value in the test on CCI injury sections was “negligible bioreactivity”.
“GPLDGKEEELRF [SP-CDR3, reference compound]”: the “bioreactivity … on injured neural tissue” value with CCI injury sections is reported as “no detectable bioreactivity”.
TDCQETPYELKS [CH2, 6, chronic injury]: the “bioreactivity of chronic injury targeting HCDR3 constructs” value in the test with CCI injury sections is “non-specific staining”.
Take “TDLAVAHPVRY (linker (positions not given here) via bromoacetamide scaffold; not fully specified; reading uncertain; also: cyclized on bromoacetamide scaffold with biotin, sites not given here) [SA1, 3, subacute stage; peptide cyclized on bromoacetamide scaffold containing biotin]”: the “stain in the peri-injury region of injured tissue” value with CCI injury sections (7 days post-injury tissue) was “Positive stain; also recorded: positively binding”. In addition, in the test on CCI injury sections (p=0.0993 (1 dpi), p=0.0780 (21 dpi)), the “bioreactivity, 7 days post-injury versus 1 days post-injury or 21 days post-injury tissue” value was “No significant differences”. In addition, the “localization of stain in sham brain sections” value in the test on CCI injury sections (sham brain sections, p=0.0079 versus 7 days post-injury) was “not observed”. In addition, the “immunoprecipitation eluate separated by SDS-PAGE” value with tissue lysates was “isolated proteins unique to the injury condition”. Further, the “# Peptides” value in test [3] and in test [4] was 6 throughout.
Regarding “GGDTFRDASQSMHF [dAb-CDR3, reference compound]”, the “bioreactivity … on injured neural tissue” value with CCI injury sections was “no detectable bioreactivity”.
For “TAERDARTFQY (linker (positions not given here) via bromoacetamide scaffold; not fully specified; reading uncertain; also: cyclized on bromoacetamide scaffold with biotin, sites not given here) [A1, 1, acute stage; peptide cyclized on bromoacetamide scaffold containing biotin]”, the “IHC signal on injured tissue” value with CCI injury sections (fixed mouse brain tissue at 1 dpi) is listed as “no detectable signal; also recorded: did not show detectable bioreactivity”.
